SMILES strings stand for the structures.

One data set has as its target T1, h17β-HSD1 (Homo sapiens, UniProt P14061).
T1 construct: h17β-HSD1 was obtained after precipitation with ammonium sulfate from the cytosolic fraction; from tissue; host or cells: human placenta, cytosolic fraction
T1 sequence (P14061 1-328): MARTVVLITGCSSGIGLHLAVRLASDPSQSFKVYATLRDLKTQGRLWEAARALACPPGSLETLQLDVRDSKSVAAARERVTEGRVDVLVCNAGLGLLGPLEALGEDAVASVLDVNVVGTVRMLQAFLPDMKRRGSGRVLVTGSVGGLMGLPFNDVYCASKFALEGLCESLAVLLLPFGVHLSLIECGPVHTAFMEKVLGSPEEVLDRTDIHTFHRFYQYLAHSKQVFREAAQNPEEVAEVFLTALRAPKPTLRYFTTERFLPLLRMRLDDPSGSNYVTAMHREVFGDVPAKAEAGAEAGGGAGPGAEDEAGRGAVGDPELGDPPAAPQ
As to the kind of experiment: Inhibition of h17β-HSD1 in cell-free assay. It counts as biochemical. Conditions: human placental cytosolic fraction, substrate E1 [500 nM], cofactor NADH [500 μM]. The procedure, abridged: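 Cytosolic enzyme from human placenta, ammonium sulfate-precipitated, incubated with 500 μM NADH, test compound and unlabelled plus [3H]-E1 (500 nM final) for 10 min at 37°C. Steroids separated by HPLC with radiodetection to quantify conversion.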

A short description of data set [1]: Metabolic stability in a cell-free assay (liver S9 fraction). Type of data set: in vitro ADME. As to conditions: human liver S9 fraction 1 mg/ml, NADPH regenerating system, UDPGA, PAPS, 37°C, inhibitor 1 μM; for half-life at 1 μM: pooled liver S9 fraction, read-out: Inhibitor t1/2. The method, then: Compounds 7a, 8a, 16a, 19a, 22a, 27a and 27 were tested according to established method[33–35]For evaluation of phase I and II metabolic stability 1 μM compound was incubated with 1 mg/ml pooled mammalian liver S9 fraction (BD Gentest), 2 mM NADPH regenerating system, 1 mM UDPGA and 0.1 mM PAPS at 37°C for 0, 5, 15 and 60 minutes at a final volume of 100 μL. The incubation was stopped by precipitation of S9 enzymes with 2 volumes of cold acetonitrile containing internal standard. Concentration of the remaining test compound at the different time points was analyzed by LC-MS/MS and used to determine half-life (t1/2).

The next data set addresses ERβ (Homo sapiens, UniProt Q92731). As to the kind of experiment: Estrogen receptor affinity in a cell-free assay (ERβ). It counts as binding. Conditions: 1000-fold excess relative to E2; recombinant human ERβ. The method, then: The binding affinity of selected compounds to ERα and ERβ was determined according to the recommendations of the US Environmental Protection Agency (EPA) by their Endocrine Disruptor Screening Program (EDSP)[24] using recombinant human proteins.
The potential inhibitors were dissolved in DMSO (5% final concentration). […] After incubation, ligand-receptor complexes were selectively bound to hydroxyapatite (83.5 g/LinTE-buffer). The bound complex was washed three times and resuspended in ethanol. For radiodetection, scintillator cocktail (Quickszint 212, Zinsser Analytic, Frankfurt) was added and samples were measured in a liquid scintillation counter (1450 LSC & Luminescence Counter, Perkin Elmer).
After the assay was established and validated, a modification was made to increase throughput.

In another data set the target is T2, m17β-HSD1 (Mus musculus, UniProt P51656).
T2 construct: host or cells: HEK 293 cells, transient transfection, 1000 g supernatant of the lysate
T2 sequence (P51656 1-344): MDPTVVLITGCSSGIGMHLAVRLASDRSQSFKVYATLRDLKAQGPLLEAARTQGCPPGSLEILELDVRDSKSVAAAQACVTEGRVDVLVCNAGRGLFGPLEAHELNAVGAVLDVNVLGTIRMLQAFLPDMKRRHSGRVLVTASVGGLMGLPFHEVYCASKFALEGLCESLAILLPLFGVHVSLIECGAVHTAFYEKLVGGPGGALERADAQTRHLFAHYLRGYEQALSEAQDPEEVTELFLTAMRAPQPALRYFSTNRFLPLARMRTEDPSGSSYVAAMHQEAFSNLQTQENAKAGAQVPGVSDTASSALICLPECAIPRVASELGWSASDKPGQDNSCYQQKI
As to the kind of experiment: Inhibition of m17β-HSD1 in cell-free assay. Conditions: recombinant m17β-HSD1, substrate E1 [500 nM], NADPH [500 μM]. Type of data set: biochemical. The method, then:
h17β-HSD2, h17β-HSD1, m17β-HSD2 and m17β-HSD1 cell-free assays were performed similarly, by incubating enzyme, tritiated substrate, cofactor and inhibitor, according to described procedures.
Recombinant m17β-HSD1 enzyme was produced by transfection of HEK 293 cells with a m17β-HSD1 expression plasmid (coding sequence of NM_010475 in pCMV6Entry vector, OriGene Technologies, Inc.) according to a described procedure. 48 hours after transfection cells were homogenized by sonication (3 x 10 s) in a buffer containing saccharose (40 mMTris, 250 mM saccharose, 5 mM EDTA, 7 mM DTT, 1 mM PMSF, pH 7,5). Cell lysate was centrifuged (1000 g, 15 min, 4°C) and 20% glycerol was added to the supernatant before aliquots were frozen and stored at -70°C.
The 17β-HSD1 inhibition assay was performed similarly to the h17β-HSD2 test. The human cytosolic enzyme was incubated with NADH [500 μM] while the mouse recombinant enzyme was reacted with NADPH [500 μM].Test compound and a mixture of unlabelled- and [^3H]-E1 (final concentration: 500 nM, 0.15 μCi) were added and mixed for 10 min at 37°C. Further treatment of the samples and HPLC separation was carried out as mentioned above for h17β-HSD2.

ERβ, sequence (Q92731 whole entry): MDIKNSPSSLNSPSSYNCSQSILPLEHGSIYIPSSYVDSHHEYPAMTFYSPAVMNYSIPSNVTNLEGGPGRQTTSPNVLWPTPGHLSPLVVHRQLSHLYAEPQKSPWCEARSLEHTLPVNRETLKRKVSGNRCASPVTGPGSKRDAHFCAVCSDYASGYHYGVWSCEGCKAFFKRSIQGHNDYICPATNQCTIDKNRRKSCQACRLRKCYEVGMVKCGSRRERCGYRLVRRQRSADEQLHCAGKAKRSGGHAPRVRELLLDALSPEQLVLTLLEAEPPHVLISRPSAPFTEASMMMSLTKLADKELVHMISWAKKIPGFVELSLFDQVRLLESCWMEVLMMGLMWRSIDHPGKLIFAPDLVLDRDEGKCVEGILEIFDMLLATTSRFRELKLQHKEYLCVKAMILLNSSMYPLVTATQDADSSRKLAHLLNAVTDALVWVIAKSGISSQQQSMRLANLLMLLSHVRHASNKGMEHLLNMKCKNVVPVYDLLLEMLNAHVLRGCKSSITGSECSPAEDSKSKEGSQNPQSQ

For orientation: IC50 means the point on the concentration scale where inhibition reaches its midpoint. On to `COc1cccc(N(C)C(=O)c2ccc(-c3cccc(C)c3)cc2)c1` [Compound 6a, N-(3-methoxyphenyl)-N,3'-dimethyl-[1,1'-biphenyl]-4-carboxamide], for which, at h17β-HSD1, the IC50 turned out to be 6.4 µM. Also, the half-life at 1 μM in data set [1] stood at 106 min. On ERβ, the “displacement of E2 from ERβ” value is given as at most 20%.

Molecule `COc1cccc(N(C)C(=O)c2ccc(-c3ccc(C)c(C)c3)cc2)c1` [Compound 17a, N-(3-methoxyphenyl)-N,3',4'-trimethyl-[1,1'-biphenyl]-4-carboxamide] yielded an IC50 against h17β-HSD1 of 13.3 µM. For the same molecule, the half-life at 1 μM in data set [1] is 107 min. Moreover, at ERβ, the “displacement of E2 from ERβ” value is listed as at most 20%. Further, at m17β-HSD1, the “inhibition of m17β-HSD1 at 1 μM” value is on record as “None of the tested compounds showed any inhibition”.

`Cc1cccc(N(C)C(=O)c2ccc(-c3cccc(C)c3F)cc2)c1` [Compound 21a, 2'-Fluoro-N,3'-dimethyl-N-(m-tolyl)-[1,1'-biphenyl]-4-carboxamide] registered an IC50 against h17β-HSD1 of 3.71 µM. Besides, the “displacement of E2 from ERβ” value at ERβ is listed as at most 20%. The “inhibition of m17β-HSD1 at 1 μM” value on m17β-HSD1 is given as “None of the tested compounds showed any inhibition”.

For `Cc1cccc(-c2ccc(C(=O)N(C)Cc3cccc(O)c3)cc2)c1F` [Compound 25, 2'-Fluoro-N-(3-hydroxybenzyl)-N,3'-dimethyl-[1,1'-biphenyl]-4-carboxamide], on h17β-HSD1, half-maximal inhibition (IC50) was put at 31 µM. In addition, in data set [1], the “Inhibitor t1/2” value was “short half-life” and the half-life at 1 μM is 6 min. Further, the “displacement of E2 from ERβ” value at ERβ is listed as at most 20%. Further, at m17β-HSD1, the “inhibition of m17β-HSD1 at 1 μM” value is reported as “None of the tested compounds showed any inhibition”.

The values above are taken from publication PMC4521925, “17β-Hydroxysteroid Dehydrogenase Type 2 Inhibition: Discovery of Selective and Metabolically Stable Compounds Inhibiting Both the Human Enzyme and Its Murine Ortholog” (PLoS ONE, 2015).
